Measured values reported in patent US20220257595A1, “MACITENTAN FOR USE IN TREATING PORTOPULMONARY HYPERTENSION” (ACTELION PHARMACEUTICALS LTD, priority 2019, published 2022).

Key:
patients with PoPH [1] = assay: PORTICO: WHO functional class; assay type: in vivo, human
Experimental: (iii) WHO functional class: WHO FC was evaluated at Screening, Baseline (Visit 2/Randomization), and then every visit until EOT-DB or EOT-OL, whichever came last.
Handling of missing data: For change from baseline to Weeks 4, 8 and 12 in 6MWD and WHO FC, the last available value (including baseline) was carried forward unless the patient died before, or on Day 42, 70, 98 (the upper limit treatment days of Weeks 4, 8 and 12 windows, respectively), in which case the following rules considering worst case were used to replace all the missing values from the week after death up to Week 12: • For 6MWD, worst fixed value was set to 0, • For WHO FC, worst fixed value was set to class IV, • For change from baseline to Week 12 in NT-proBNP, the same imputation rule as for PVR was applied as described herein.
Statistical analysis: The change from baseline to Week 12 in mRAP, mPAP, cardiac index, TPR and SVO2 were analyzed on the FAS (with imputation) using an ANCOVA with factors for treatment group, background PAH-specific therapy at baseline (Yes/No as per IXRS, randomization stratification factor), region (Europe/North America/Latin America as per IXRS, randomization stratification factor) and a covariate for baseline corresponding variable. Other RHC variables are listed only. WHO FC is summarized on the FAS (with imputation) by time point and treatment group using frequency tables. Changes from baseline in WHO FC were dichotomized as worsening (i.e., change >0) versus no change or improvement (i.e., change ≤0). Worsening was analyzed using a logistic regression model (exact) with covariates for treatment group, background PAH-specific therapy at baseline (Yes/No as per IXRS, randomization stratification factor) and region (Europe/North America/Latin America as per IXRS, randomization stratification factor). 6MWD is summarized on the FAS (with imputation) by time point and treatment group using descriptive statistics. Change from baseline to each time point is summarized similarly. Change from baseline in 6MWD (up to Week 12) was analyzed using a mixed-effect model repeated measure (MMRM) with factors for treatment group, time point, treatment by time interaction, background PAH-specific therapy at baseline (Yes/No as per IXRS, randomization stratification factor) and region (Europe/North America/Latin America as per IXRS, randomization stratification factor), and covariates for baseline 6MWD and WHO FC. An unstructured covariance matrix was used to account for the correlation between repeated measurements from the same patient. NT-proBNP is summarized on the FAS (with imputation) by time point and treatment group using descriptive statistics as well as geometric means and CVs. The ratio of Week 12 to baseline NT-proBNP is summarized similarly. The ratio versus baseline in NT-proBNP was log-transformed and analyzed using an ANCOVA with covariates for treatment group, background PAH-specific therapy at baseline (Yes/No as per IXRS, randomization stratification factor), region (Europe/North America/Latin America as per IXRS, randomization stratification factor) and baseline log NT-proBNP.
Macitentan treatment period: Changes from macitentan baseline to each time point in WHO FC, 6MWD, NT-pro BNP and Borg dyspnea index (related to the macitentan treatment period) are summarized for the MTS using descriptive statistics.

patients with PoPH [2] = assay: Post-hoc: change in mPAP / PVR by baseline mPAP / PVR category; assay type: in vivo, human; conditions: for PVR Change from baseline to Week 12, Median / PVR Week 12, Median / PVR Change from baseline to Week 12, Mean / PVR Week 12, Mean / mPAP Week 12, Median / mPAP Week 12, Mean / mPAP Change from baseline to Week 12, Median / mPAP Change from baseline to Week 12, Mean: 10 mg, Full Analysis Set
Text: This example provides post hoc analyses of the study performed in Example 1. These analyses include: • To assess the effect of macitentan on mean pulmonary arterial pressure (mPAP) related to pre-treatment mPAP. • To assess the effect of macitentan on pulmonary vascular resistance (PVR) related to pre-treatment PVR.
The following exploratory endpoints were defined for the post hoc analyses: • mPAP change related to pre-treatment mPAP. • PVR change related to pre-treatment PVR
All analyses were performed on the full analysis set (FAS, as per randomization, N=85) and no data imputation was performed.
Risk categories are noted in Table 38. To analyze change in mPAP relative to baseline mPAP, the same mPAP categories were used as for transplant perioperative risk classification (Table 38). For the analysis of change in PVR relative to baseline PVR, waitlist mortality risk PVR categories were used (Table 38).

[3] = prior nonclinical and clinical studies; cited from earlier work
[4] = PVR at baseline <= 450 dyn · sec/cm^5, n 12
[5] = PVR at baseline > 450 dyn · sec/cm^5, n 27
[6] = mPAP at baseline < 35 mmHg, n 2

## CCCNS(=O)(=O)Nc1ncnc(OCCOc2ncc(Br)cn2)c1-c1ccc(Br)cc1 [macitentan, N-[5-(4-Bromophenyl)-6-[2-[(5-bromo-2-pyrimidinyl)oxy]ethoxy]-4-pyrimidinyl]-N′-propylsulfamide]
Patients with PoPH [1]; FAS with imputation, N=43
  WHO FC Class I at Week 12, total: 3 (7.0) n (%)
  WHO FC Class II at Week 12, total: 27 (62.8) n (%)
  WHO FC Class III at Week 12, total: 13 (30.2) n (%)
  WHO FC Class IV at Week 12, total: 0 n (%)
  WHO FC Improved, baseline to Week 12: 9 (20.9) n (%)
  WHO FC Not Worsened, baseline to Week 12: 37 (86.0) n (%)
  WHO FC Unchanged, baseline to Week 12: 28 (65.1) n (%)
  WHO FC Worsened, baseline to Week 12: 6 (14.0) n (%)
  WHO FC shift: baseline Class I to Week 12 Class I: 1 (2.3) n (%)
  WHO FC shift: baseline Class I to Week 12 Class II: 0 n (%)
  WHO FC shift: baseline Class I to Week 12 Class III: 0 n (%)
  WHO FC shift: baseline Class I to Week 12 Class IV: 0 n (%)
  WHO FC shift: baseline Class II to Week 12 Class I: 1 (2.3) n (%)
  WHO FC shift: baseline Class II to Week 12 Class II: 20 (46.5) n (%)
  WHO FC shift: baseline Class II to Week 12 Class III: 6 (14.0) n (%)
  WHO FC shift: baseline Class II to Week 12 Class IV: 0 n (%)
  WHO FC shift: baseline Class III to Week 12 Class I: 1 (2.3) n (%)
  WHO FC shift: baseline Class III to Week 12 Class II: 7 (16.3) n (%)
  WHO FC shift: baseline Class III to Week 12 Class III: 7 (16.3) n (%)
  WHO FC shift: baseline Class III to Week 12 Class IV: 0 n (%)
Patients with PoPH [1]; FAS, macitentan group
  Patients with no change in WHO FC at Week 12: 65.1%
Patients with PoPH [1]; FAS, macitentan group, 6 patients (4 imputed)
  Patients with worsening in WHO FC at Week 12: 14.0%
Patients with PoPH [1]; FAS, macitentan group, 9 patients
  Patients with improvement in WHO FC at Week 12: 20.9%
Patients with PoPH [1]; MTS without imputation, macitentan in both periods, 2/34
  Patients with worsening in WHO FC at Week 24: 5.9%
Patients with PoPH [1]; MTS without imputation, macitentan in both periods, 21/34
  Patients with no change in WHO FC at Week 24: 61.8%
Patients with PoPH [1]; MTS without imputation, vs macitentan baseline, 3/35
  Patients with worsening in WHO FC at Week 12 after macitentan initiation in OL period: 8.6%
Patients with PoPH [1]; MTS without imputation, vs macitentan baseline, 24/35
  Patients with no change in WHO FC at Week 12 after macitentan initiation in OL period: 68.6%
Patients with PoPH [2]; FAS no imputation, 41 patients
  Macitentan-treated patients with a decrease in PVR at Week 12 compared to baseline: 95.3%
Patients with PoPH [2]; FAS no imputation, thirty-eight patients
  Macitentan-treated patients with a decrease in mPAP at Week 12 compared to baseline: 88.3%
Patients with PoPH [2]; [4]
  PVR Change from baseline to Week 12, Median: −120.0 dyn · sec/cm^5
  PVR Week 12, Median: 248.7 dyn · sec/cm^5
Patients with PoPH [2]; PVR at baseline <= 450 dyn · sec/cm^5, n 12, SD 71.23
  PVR Change from baseline to Week 12, Mean: −116.4 dyn · sec/cm^5
Patients with PoPH [2]; PVR at baseline <= 450 dyn · sec/cm^5, n 12, SD 86.64
  PVR Week 12, Mean: 264.6 dyn · sec/cm^5
Patients with PoPH [2]; [5]
  PVR Change from baseline to Week 12, Median: −244.9 dyn · sec/cm^5
  PVR Week 12, Median: 382.5 dyn · sec/cm^5
Patients with PoPH [2]; PVR at baseline > 450 dyn · sec/cm^5, n 27, SD 125.48
  PVR Change from baseline to Week 12, Mean: −249.4 dyn · sec/cm^5
Patients with PoPH [2]; PVR at baseline > 450 dyn · sec/cm^5, n 27, SD 130.62
  PVR Week 12, Mean: 400.7 dyn · sec/cm^5
Patients with PoPH [2]; and <45 mmHg
  Mean (SD) decrease in mPAP at Week 12: 5.2 (4.22) mmHg
Patients with PoPH [2]; baseline PVR <450 dyn·s/cm^5
  Mean (SD) decrease in PVR at Week 12: 116.4 (71.23) dyn·s/cm^5
Patients with PoPH [2]; baseline PVR >450 dyn·s/cm^5
  Mean (SD) decrease in PVR at Week 12: 249.4 (125.48) dyn·s/cm^5
Patients with PoPH [2]; baseline mPAP <35 mmHg
  Mean (SD) decrease in mPAP at Week 12: 2.0 (5.66) mmHg
Patients with PoPH [2]; baseline mPAP ≥45 mmHg
  Mean (SD) decrease in mPAP at Week 12: 7.8 (5.27) mmHg
Patients with PoPH [2]; mPAP at baseline 35 to < 45 mmHg, n 13
  mPAP Week 12, Median: 36.0 mmHg
Patients with PoPH [2]; mPAP at baseline 35 to < 45 mmHg, n 13, SD 3.84
  mPAP Week 12, Mean: 35.4 mmHg
Patients with PoPH [2]; [6]
  mPAP Change from baseline to Week 12, Median: −2.0 mmHg
  mPAP Week 12, Median: 29.0 mmHg
Patients with PoPH [2]; mPAP at baseline < 35 mmHg, n 2, SD 5.66
  mPAP Change from baseline to Week 12, Mean: −2.0 mmHg
Patients with PoPH [2]; mPAP at baseline < 35 mmHg, n 2, SD 8.49
  mPAP Week 12, Mean: 29.0 mmHg
Patients with PoPH [2]; mPAP at baseline >= 45 mmHg, n 24
  mPAP Week 12, Median: 43.0 mmHg
Patients with PoPH [2]; mPAP at baseline >= 45 mmHg, n 24, SD 7.04
  mPAP Week 12, Mean: 44.0 mmHg
Patients with PoPH [2]; mPAP at baseline ≥ 35 to < 45 mmHg, n 13
  mPAP Change from baseline to Week 12, Median: −5.0 mmHg
Patients with PoPH [2]; mPAP at baseline ≥ 35 to < 45 mmHg, n 13, SD 4.22
  mPAP Change from baseline to Week 12, Mean: −5.2 mmHg
Patients with PoPH [2]; mPAP at baseline ≥ 45 mmHg, n 24
  mPAP Change from baseline to Week 12, Median: −7.5 mmHg
Patients with PoPH [2]; mPAP at baseline ≥ 45 mmHg, n 24, SD 5.27
  mPAP Change from baseline to Week 12, Mean: −7.8 mmHg
[3]
  Toxicities associated with macitentan treatment: associated with teratogenicity, dose-related anemia/decrease in hemoglobin concentration, and hepatotoxicity
